The values below are quoted from earlier work in Sander's compilation of Henry's law constants (doi:10.1016/j.chroma.2007.11.025).

The nature of this data set: Henry solubility constant Hcp at 298.15 K (mol/(m3 Pa)). The conditions noted are these: reference: Sieg et al. (2008); cited value.
On to `CCCCCCCCCC=O` [decanal], for which the “Henry solubility constant Hcp” value is 0.0055.

Turning to `Cc1ccc(C)cc1` [1,4-dimethylbenzene], the “Henry solubility constant Hcp” value was 0.0014.

Take `CCCCCCC=O` [heptanal]: the “Henry solubility constant Hcp” value was 0.037.

For the compound `ClCCBr` [1-chloro-2-bromoethane], the “Henry solubility constant Hcp” value is 0.011.

For `CCCCCCCC=O` [octanal], the “Henry solubility constant Hcp” value is 0.019.

On to `Cc1ccccc1C` [1,2-dimethylbenzene], for which the “Henry solubility constant Hcp” value is 0.0019.

In the case of `CCCCCCCCC=O` [nonanal], the “Henry solubility constant Hcp” value is 0.014.

Turning to `c1ccccc1` [benzene], the “Henry solubility constant Hcp” value is 0.0018.

On to `Cc1cccc(C)c1` [1,3-dimethylbenzene], for which the “Henry solubility constant Hcp” value was 0.0014.

In the case of `CCc1ccccc1` [ethylbenzene], the “Henry solubility constant Hcp” value was 0.0013.

Turning to `Cc1ccccc1` [methylbenzene], the “Henry solubility constant Hcp” value was 0.0015.

As to `Fc1ccccc1` [fluorobenzene], the “Henry solubility constant Hcp” value is 0.0016.
